Like-named read-outs stand apart in the source and are kept apart here.
Tests used:
CEM T-ALL cell line = assay: Cytotoxicity assay, CEM; assay type: cell-based, human; conditions: Homo sapiens, 96 h, four days in culture, Alamar blue assay or automated microscopy, ± SD, three experiments
Description: (§1) Cell lines were cultured in Opti-MEM medium (Gibco, Life Technologies Corporation, Burlington, Ontario) supplemented with 10% heat inactivated fetal bovine serum (FBS) (Gibco), 100 units/ml penicillin and 100 units/ml streptomycin (Gibco) and 0.05 mM 2-mercaptoethanol (Sigma-Aldrich, Oakville, Ontario) in T25 flasks (Nalge Nunc, Rochester, New York) or T75 flasks (Corning Incorporated, Corning, New York). All cell cultures were maintained at 37°C in a humidified incubator with 5% CO2.
(§2) For cytotoxicity profiling of Aurora kinase inhibitors against leukemia cell lines, inhibitors or vehicle control (DMSO, Sigma-Aldrich) were diluted in 100 µl of Opti-MEM per well in 96 well plates (Grenier Bio-One, Monroe, North Carolina) in triplicate at final concentrations ranging from 1×10^−6 to 10 µM. 1×10^4 cells per well were seeded and plates were incubated for 4 days. Following incubation for 4 days, cell survival was quantified by Alamar blue assay (Invitrogen) or automated inverted microscopy using the Celigo Cell Cytometer (Cyntellect, San Diego, California). […] During this period of incubation, the absorbance at 570–620 nm was measured (Opsys MR Plate Reader, Dynex Technologies, Chantilly, Virginia) at various time points, depending on the cell line or sample. Percent survival was calculated by comparing the absorbance ratio of the test well to the control well multiplied by 100%, as indicated in the following formula: […]
(§3) For automated inverted microscopy, the number of cells in each well was determined using the direct cell counting application as described previously. Briefly, following adjustment of image acquisition settings for bright-field imaging, the wells containing cells and appropriate dilutions of inhibitors were individually scanned. Based on these images, analysis parameters, including intensity threshold and cell diameter, were modified for optimal inclusion of viable cells in treated and control wells. These parameters were applied for subsequent replicates involving the same leukemia cell line or sample. The percent survival was then calculated as a ratio of the number of cells in treated wells to the number of cells in control wells multiplied by 100%. Given that Aurora kinase inhibitors interfere with cytokinesis, cells that are committed to death may still contain enlarging but intact cytoplasmic content before the eventual loss of cytoplasmic membrane integrity. The accuracy of Alamar blue assay may be, in theory, affected by the timing of these events.

SEM B-ALL cell line = assay: Cytotoxicity assay, SEM; assay type: cell-based; conditions: Homo sapiens, 96 h, four days in culture, Alamar blue assay or automated microscopy, ± SD, three experiments
Description: as §1, §2, §3

[1] = system: Patient #5 ALL/AML primary leukemia cells; assay: Cytotoxicity assay, primary sample Patient #5; assay type: cell-based, human; conditions: Homo sapiens, 96 h, read-out: IC50, Patient #5 ALL/AML
Description: (§4) These include B-ALL (Patient #1), relapsed AML (Patient #2), AML/CML (Patient #3), infant ALL (Patient #4), and initial ALL presenting with secondary AML (Patient #5). […] The diluted sample was then layered on a Ficoll-Paque (GE Healthcare, Piscataway, New Jersey) gradient at a 1∶2 ratio of Ficoll to diluted sample. Samples were then centrifuged 1800 rpm for 20 minutes at room temperature. The buffy coat was removed with a pipette and transferred to a new centrifuge tube and diluted with PBS. After an additional centrifugation at 1200 rpm, the white blood cell pellet was washed with PBS and centrifuged one last time. Cells were re-suspended in Opti-MEM and viable cells were counted using trypan blue (Invitrogen, Life Technologies Corporation, Burlington, Ontario) exclusion on a haemocytometer. An identical protocol was followed for the isolation of white blood cells, referred to as “normal lymphocytes” in the following paragraphs, from healthy volunteers. Samples grown in culture for up to six months were cultured in Opti-MEM medium supplemented with 10% heat inactivated FBS, penicillin/streptomycin and 2-mercaptoethanol.
as §2, §3

Bone Marrow Stroma = assay: Cytotoxicity assay, bone marrow stroma; assay type: cell-based, human; conditions: Homo sapiens, 96 h; bone marrow stroma (control for non-leukemia cytotoxicity); four days in culture; ± SD, three experiments
Description: as §2, §3

[2] = system: Patient #4 infant leukemia primary cells; assay: Cytotoxicity assay, primary sample Patient #4; assay type: cell-based, human; conditions: Homo sapiens, 96 h, four days in culture, Alamar blue assay or automated microscopy, one complete study
Description: as §4, §2, §3

Aurora-B = system: Aurora-B; set-up: method as in earlier work; conditions: literature values; ref [10],[22],[27],[40],[44]–[64] as listed per inhibitor in Table 1; read-out: Targets (IC50 Value): Aurora-B; cited from earlier work
Nalm6 B-ALL cell line = assay: Cytotoxicity assay, Nalm6; assay type: cell-based, human; conditions: Homo sapiens, NALM-6, 96 h, four days in culture, Alamar blue assay or automated microscopy, ± SD, three experiments
Description: as §1, §2, §3

C1 B-ALL cell line = assay: Cytotoxicity assay, C1; assay type: cell-based, human; conditions: Homo sapiens, 96 h, four days in culture, Alamar blue assay or automated microscopy, ± SD, three experiments
Description: as §1, §2, §3

Aurora-C = conditions: read-out: Targets (IC50 Value): Aurora-C; literature values; ref [10],[40],[44]–[64] as listed per inhibitor in Table 1; cited from earlier work
Molm13 AML cell line = assay: Cytotoxicity assay, Molm13; assay type: cell-based, human; conditions: Homo sapiens, MOLM-13, 96 h, four days in culture, Alamar blue assay or automated microscopy, ± SD, three experiments
Description: as §1, §2, §3

HL-60 RA APML cell line = assay: Cytotoxicity assay, HL-60 RA; assay type: cell-based, human; conditions: Homo sapiens, 96 h; APML cell line HL-60 RA; four days in culture; Alamar blue assay or automated microscopy; ± SD, three experiments
Description: as §1, §2, §3

[3] = system: Patient #3 AML/CML primary leukemia cells; assay: Cytotoxicity assay, primary sample Patient #3; assay type: cell-based, human; conditions: Homo sapiens, 96 h, four days in culture, Alamar blue assay or automated microscopy, one complete study
Description: as §4, §2, §3

MV4-11 AML cell line = assay: Cytotoxicity assay, MV4-11; assay type: cell-based, human; conditions: Homo sapiens, 96 h; AML cell line MV4-11; four days in culture; Alamar blue assay or automated microscopy; ± SD, three experiments
Description: as §1, §2, §3

B1 B-ALL cell line = assay: Cytotoxicity assay, B1; assay type: cell-based, human; conditions: Homo sapiens, 96 h, four days in culture, Alamar blue assay or automated microscopy, ± SD, three experiments
Description: as §1, §2, §3

KOPN8 B-ALL cell line = assay: Cytotoxicity assay, KOPN8; assay type: cell-based, human; conditions: Homo sapiens, KOPN-8, 96 h, four days in culture, Alamar blue assay or automated microscopy, ± SD, three experiments
Description: as §1, §2, §3

[4] = system: Patient #1 B-ALL primary leukemia cells; assay: Cytotoxicity assay, primary sample Patient #1; assay type: cell-based, human; conditions: Homo sapiens, 96 h, four days in culture, Alamar blue assay or automated microscopy, one complete study
Description: as §4, §2, §3

Normal Lymphocytes = assay: Cytotoxicity assay, normal lymphocytes; assay type: cell-based, human; conditions: Homo sapiens, Lymphocyte, 96 h; normal lymphocytes (control for non-leukemia cytotoxicity); four days in culture; ± SD, three experiments
Description: as §4, §2, §3

HL-60 APML cell line = assay: Cytotoxicity assay, HL-60; assay type: cell-based, human; conditions: Homo sapiens, 96 h; APML cell line HL-60; four days in culture; Alamar blue assay or automated microscopy; ± SD, three experiments
Description: as §1, §2, §3

Molt-3 T-ALL cell line = assay: Cytotoxicity assay, Molt-3; assay type: cell-based, human; conditions: Homo sapiens, 96 h; T-ALL cell line Molt-3; four days in culture; Alamar blue assay or automated microscopy; ± SD, three experiments
Description: as §1, §2, §3

NB4 APML cell line = assay: Cytotoxicity assay, NB4; assay type: cell-based, human; conditions: Homo sapiens, 96 h, four days in culture, Alamar blue assay or automated microscopy, ± SD, three experiments
Description: as §1, §2, §3

TIB-202 AML cell line = assay: Cytotoxicity assay, TIB-202; assay type: cell-based, human; conditions: Homo sapiens, 96 h; AML cell line TIB-202; four days in culture; Alamar blue assay or automated microscopy; ± SD, three experiments
Description: as §1, §2, §3

[5] = system: normal cells versus leukemia cell lines; assay: Comparison of cytotoxicity IC50 values, normal cells versus leukemia cell lines; assay type: cell-based, human; conditions: normal lymphocytes and bone marrow stroma versus leukemia cell lines of Table 2
Description: as §2, §3

[6] = system: Patient #2 relapsed AML primary leukemia cells; assay: Cytotoxicity assay, primary sample Patient #2; assay type: cell-based, human; conditions: Homo sapiens, 96 h, four days in culture, Alamar blue assay or automated microscopy, one complete study
Description: as §4, §2, §3

UOCB1 B-ALL cell line = assay: Cytotoxicity assay, UOCB1; assay type: cell-based, human; conditions: Homo sapiens, UoC-B1, 96 h, four days in culture, Alamar blue assay or automated microscopy, ± SD, three experiments
Description: as §1, §2, §3

Aurora-A = system: Aurora-A; set-up: method as in earlier work; conditions: read-out: Targets (IC50 Value): Aurora-A; cited from earlier work
[7] = primary sample, four days in culture, Alamar blue assay or automated microscopy, one complete study

Structure (SMILES) | IC50 (SEM B-ALL cell line) [nM] | IC50 (Bone Marrow Stroma) [nM] | IC50 [2] [µM] | IC50 (Nalm6 B-ALL cell line) [nM] | IC50 (C1 B-ALL cell line) [nM] | IC50 (Aurora-C) [nM] | IC50 (Molm13 AML cell line) [nM] | IC50 (HL-60 RA APML cell line) [nM] | IC50 [3] [µM] | IC50 (MV4-11 AML cell line) [nM] | IC50 (B1 B-ALL cell line) [nM] | IC50 (KOPN8 B-ALL cell line) [nM] | IC50 [4] [nM] | IC50 (Normal Lymphocytes) [µM] | IC50 (HL-60 APML cell line) [nM] | IC50 (Molt-3 T-ALL cell line) [nM] | IC50 (NB4 APML cell line) [nM] | IC50 (TIB-202 AML cell line) [nM] | IC50 values for the normal cells compared with IC50 values for the leukemia cell lines (potential therapeutic window) [5] | IC50 [6] [nM] | further results
CCc1cccc(CC)c1NC(=O)N1Cc2n[nH]c(NC(=O)c3ccc(N4CCN(C)CC4)cc3)c2C1 [PHA-680632] | 800 ± 300 | 2000 ± 900 | > 10 | 400 ± 200 | 100 ± 50 | 120 | 30 ± 20 | 90 ± 10 | > 10 | 300 ± 200 | 5000 ± 900 | 60 ± 20 | 10 | > 10 | 6000 ± 2000 | 100 ± 60 | 900 ± 90 | 6000 ± 1000 | lower than the IC50 values for the normal cells, but not as pronounced | 2000 | IC50 (CEM T-ALL cell line): 300 ± 100 nM; IC50 [1]: 0.8 nM; IC50 (Aurora-B): 135 nM; IC50 (UOCB1 B-ALL cell line): 1000 ± 500 nM
CO[C@@H](C(=O)N1Cc2n[nH]c(NC(=O)c3ccc(N4CCN(C)CC4)cc3)c2C1)c1ccccc1 [PHA-739358] | 80 ± 20 | 3000 ± 1000 | > 10 | 9 ± 0.9 | 8 ± 1 | 61 | 6 ± 1 | 7 ± 1 | > 10 | 3 ± 2 | 2000 ± 900 | 2 ± 1 | 0.9 | > 10 | 900 ± 100 | 4 ± 2 | 200 ± 100 | 2000 ± 900 | lower than the IC50 values for the normal cells, but not as pronounced | 300 | IC50 (CEM T-ALL cell line): 10 ± 6 nM; IC50 [1, 7]: 1 nM; IC50 (UOCB1 B-ALL cell line): 60 ± 20 nM
Cc1cc(Nc2cc(N3CCN(C)CC3)nc(Sc3ccc(NC(=O)C4CC4)cc3)n2)[nH]n1 [VX-680] | 60 ± 20 | > 10000 | 1 | 0.2 | 0.4 | […] | 4 ± 2 | 1 ± 0.5 | 2 | 2 ± 1 | 5 ± 3 | 3 ± 0.5 | 0.09 | 5 ± 0.9 | 60 ± 5 | 0.9 | 7 ± 2 | 7 ± 3 | higher than the IC50 values for the leukemia cell lines | 100 | IC50 (Aurora-A): […]; IC50 [1, 7]: 0.5 nM; IC50 (UOCB1 B-ALL cell line): < 0.001 nM
